In EP0608858A1, “5-Membered heterocycles as aggregation inhibitors” (Dr. Karl Thomae GmbH, priority 1993, dated 1994):
Structures can show the parent of a compound that is named as a salt.

Experiments:
Humanthrombozyten [1] = assay: Competitive binding of ³H-BIBU 52 / test substance to human platelets; details: human platelets in plasma, ³H-BIBU 52 5 nM, 20 min at room temperature; read-out: Kompetitive Bindung ³H-BIBU 52 Textsubstanz an Humanthrombozyten IC₅₀
From the text: 1. Kompetitive Bindung ³H-BIBU 52/Testsubstanz an Humanthrombozyten:
Eine Suspension von Humanthrombozyten in Plasma wird mit ³H-BIBU 52 [= (3S,5S)-5-[(4'-Amidino-4-biphenylyl)oxymethyl]-3-[(carboxyl)methyl]-2-pyrrolidinon[3-³H-4-biphenylyl]], das den literaturbekannten Liganden ¹²⁵I-Fibrinogen ersetzt, (siehe deutsche Patentanmeldung P 42 14 245.8 der gleichen Anmeldezin vom 30. 04. 1992, internes Zeichen: Case 5/1093-FL) und verschiedenen Konzentrationen der zu testenden Substanz inkubiert. Der freie und gebundene Ligand wird durch Zentrifugation getrennt und durch Szintillationszählung quantitativ bestimmt. Aus den Meßwerten wird die Hemmung der ³H-BIBU 52-Bindung durch die Testsubstanz bestimmt.
Hierzu wird aus einer Antikubitalvene Spenderblut entnommen und mit Trinatriumzitrat antikoaguliert (Endkonzentration 13 mM) . Das Blut wird 10 Minuten bei 170 x g zentrifugiert und das überstehende plättchenreiche Plasma (PRP) abgenommen. Das Restblut wird zur Gewinnung von Plasma nocheinmal scharf abzentrifugiert. Das PRP wird mit autologem Plasma 1:10 verdünnt. 750 µl werden mit 50 µl physiologischer Kochsalzlösung, 100 µl Testsubstanzlösung, 50 µl ¹⁴C-Sucrose (3.700 Bq) und 50 µl ³H-BIBU 52 (Endkonzentration: 5 nM.) bei Raumtemperatur 20 Minuten inkubiert. Zur Messung der unspezifischen Bindung wird anstelle der Testsubstanz 5 µl BIBU 52 (Endkonzentration: 30 µM) eingesetzt. Die Proben werden 20 Sekunden bei 10000 x g zentrifugiert und der Überstand abgezogen. 100 µl hiervon werden zur Bestimmung des freien Liganden gemessen. Das Pellet wird in 500 µl 0,2N NaOH gelöst, 450 µl werden mit 2 ml Szintillator und 25 µl 5N HCl versetzt und gemessen. Das im Pellet noch verbliebene Restplasma wird aus dem ¹⁴C-Gehalt bestimmt, der gebundene Ligand aus der ³H-Messung. Nach Abzug der unspezifischen Bindung wird die Pelletaktivität gegen die Konzentration der Testssubstanzaufgetragen und die Konzentration für eine 50%ige Hemmung der Bindung ermittelt.

Thrombozytenaggregation = assay: Collagen-induced platelet aggregation (Born and Cross) in platelet-rich plasma; format: cell-based, gesunder Versuchspersonen; details: human platelet-rich plasma, 10 min preincubation with substance at 37°C, read-out: Hemmung der Plättchenaggregation EC₅₀
From the text: 2. Antithrombotische Wirkung
Die Thrombozytenaggregation wird nach der Methode von Born und Cross (J. Physiol. 170, 397 (1964)) in plättchenreichem Plasma gesunder Versuchspersonen gemessen. Zur Gerinnungshemmung wird das Blut mit Natriumcitrat 3,14 % im Volumenverhältnis 1:10 versetzt.
Collagen-induzierte Aggregation
Der Verlauf der Abnahme der optischen Dichte der Plättchensuspension wird nach Zugabe der aggregationsauslösenden Substanz photometrisch gemessen und registriert. Aus dem Neigungswinkel der Dichtekurve wird auf die Aggregationsgeschwindigkeit geschlossen. Der Punkt der Kurve, bei dem die größte Lichtdurchlässigkeit vorliegt, dient zur Berechnung der "optical density".
Die Collagen-Konzentration wird möglichst gering gewählt, aber doch so, daß sich eine irreversibel verlaufende Reaktionskurve ergibt. Verwendet wird das handelsübliche Collagen der Firma Hormonchemie, München. Vor der Collagen-Zugabe wird das Plasma jeweils 10 Minuten mit der Substanz bei 37°C inkubiert.
Aus den Konzentrations-Wirkungskurven wird die EC₅₀ berechnet, die die Konzentration beschreibt, bei der die Änderung der "optical density" halbmaximal gehemmt ist.

Mäusen = assay: Tolerability after intravenous administration to mice; format: in vivo; details: 30 mg/kg, 3 mice each
Humanthrombozyten [2] = assay: Ex vivo inhibition of collagen-induced aggregation of human platelets by rat plasma obtained after oral dosing; format: in vivo; details: rat plasma obtained after oral 10 mg/kg, after 3 hours
Description: Außerdem erzielt man beispielsweise mit dem nach peroraler Gabe vom 10 mg/kg der Verbindung des Beispiels 2(19) gewonnenen Rattenplasma ex vivo nach 3 Stunden eine 80%ige Hemmung der durch Kollagen induzierten Aggregration von Humanthrombozyten.

IC50 (Humanthrombozyten [1]) | EC50 (Thrombozytenaggregation) | Compound | Tiere gestorben (Mäusen) | Hemmung der durch Kollagen induzierten Aggregration von Humanthrombozyten (Humanthrombozyten [2])
1.6 nM | 40 nM | CCCCS(=O)(=O)NC(Cc1cn(-c2ccc(-c3ccc(C(=N)N)cc3)nn2)cn1)C(=O)O (centres unmarked) [3(3), 1-[6-(4-Amidino-phenyl)-3-pyridazinyl]-4-[2-(n-butan-sulfonylamino)-2-carboxy-ethyl]-imidazol-hydrochlorid] | – | –
550 nM | 380 nM | COC(=O)[C@H]1CC[C@H](c2nnc(-c3ccc(C4CCNCC4)cc3)s2)CC1 [2(3), 2-[trans-4-(Methoxycarbonyl)-cyclohexyl)-5-[4-(4-piperidyl)-phenyl]-1,3,4-thiadiazol-hydrochlorid] | – | –
– | – | CCOC(=O)[C@H]1CC[C@H](c2nnc(-c3ccc(C4CCNCC4)cc3)s2)CC1.Cl [2(19), 2-[trans-4-(Ethoxycarbonyl)-cyclohexyl]-5-[4-(4-piperidyl)-phenyl]-1,3,4-thiadiazol-hydrochlorid] | – | 80%
400 nM | 880 nM | O=C(O)CCNC(=O)c1nnc(-c2ccc(C3CCNCC3)cc2)s1 [Beispiel 3, 2-[(2-Carboxyethyl)-aminocarbonyl]-5-[4-(4-piperidyl)-phenyl]-1,3,4-thiadiazol-hydrochlorid] | – | –
6800 nM | 4400 nM | O=C(O)CCCCc1nnc(-c2ccc(C3CCNCC3)cc2)o1 [3(1), 2-(4-Carboxybutyl)-5-[4-(4-piperidyl)-phenyl]-1,3,4-oxadiazol] | – | –
24000 nM | 3000 nM | COC(=O)CCNC(=O)c1nnc(-c2ccc(C3CCNCC3)cc2)s1 [Beispiel 2, 2-[[2-(Methoxycarbonyl)-ethyl]-aminocarbonyl]-5-[4-(4-piperidyl)-phenyl]-1,3,4-thiadiazol-hydrochlorid] | – | –

Compound | IC50 (Humanthrombozyten [1]) | EC50 (Thrombozytenaggregation) | Tiere gestorben (Mäusen) | Hemmung der durch Kollagen induzierten Aggregration von Humanthrombozyten (Humanthrombozyten [2])
Cl.O=C(O)[C@H]1CC[C@H](c2nnc(-c3ccc(C4CCNCC4)cc3)s2)CC1 [5(3), 2-(trans-4-Carboxy-cyclohexyl)-5-[4-(4-piperidyl)-phenyl]-1,3,4-thiadiazol-hydrochlorid] | 11 nM | 100 nM | keine Tiere gestorben | –
Cl.O=C(O)CCCCc1nnc(-c2ccc(C3CCNCC3)cc2)s1 [Beispiel 5, 2-(4-Carboxy-butyl)-5-[4-(4-piperidyl)-phenyl]-1,3,4-thiadiazol-hydrochlorid] | 510 nM | 320 nM | keine Tiere gestorben | –
